Results reported in publication PMC6112376, “Comprehensive Analyses and Prioritization of Tox21 10K Chemicals Affecting Mitochondrial Function by in-Depth Mechanistic Studies” (Environmental Health Perspectives, 2018).
Read-outs that look alike come from different tables or passages of the source.

Experiments:
[1] = tested on: HepG2 cells; assay: cells; conditions: Homo sapiens; for IC50: HepG2, read-out: MMP assays IC50 (µM) HepG2; for Emax: HepG2, read-out: MMP assays efficacy (%) HepG2
[2] = tested on: HepG2 cells; conditions: cited from earlier work
[3] = tested on: rat primary hepatocytes; assay: MMP assay in rat primary hepatocytes; conditions: for IC50: Rattus norvegicus, Hepatocyte, read-out: MMP assays IC50 (µM) Rat Hepatocytes; for MMP assays efficacy (%) Rat Hepatocytes / MMP assays IC50 (µM) Rat Hepatocytes: mean ± SD of three experiments
[4] = read-out: MMP assays IC50 (µM), qHTS-HepG2
[5] = read-out: MMP assays IC50 (µM) qHTS-HepG2

Cc1nnc2n1-c1sc(CCc3ccc(CC(C)C)cc3)cc1C(c1ccccc1Cl)=NC2C (stereo not shown) [Israpafant]
IC50 [1]: 27.5 µM
Emax [1]: 108%
IC50 [2, 4]: 22 ± 1.49 µM
IC50 [3]: 23.5 ± 5.67 µM
MMP assays efficacy (%) Rat Hepatocytes [3]: -55±10%

O=C(O)c1ccccc1Nc1cccc(C(F)(F)F)c1 [Flufenamic acid]
IC50 [1]: 17.3 µM
Emax [1]: 108%
MMP assays efficacy (%) qHTS-HepG2 [2]: -129±20%
IC50 [2, 4]: 36.6 ± 1.87 µM
IC50 [3]: 14.5 ± 4.99 µM
MMP assays efficacy (%) Rat Hepatocytes [3]: -111±31%

Cc1cc(O)cc(C)c1Cl [4-Chloro-3,5-dimethylphenol]
IC50 [1]: 25.1 µM
Emax [1]: 106%
MMP assays efficacy (%) qHTS-HepG2 [2]: -122±6%
IC50 [2, 5]: 21 µM
MMP assays IC50 (µM) Rat Hepatocytes [3]: inactive
MMP assays efficacy (%) Rat Hepatocytes [3]: inactive

Cc1c(Nc2ncccc2C(=O)O)cccc1C(F)(F)F [Flunixin meglumine]
IC50 [1]: 7.4 µM
Emax [1]: 83%
MMP assays efficacy (%) qHTS-HepG2 [2]: -123±14%
IC50 [2, 4]: 9.02 µM
IC50 [3]: 5.77 ± 4.59 µM
MMP assays efficacy (%) Rat Hepatocytes [3]: -107±11%

O=c1c(-c2ccccc2)c1-c1ccccc1 [Diphenylcyclopropenone]
IC50 [1]: 27.5 µM
Emax [1]: 79%
MMP assays efficacy (%) qHTS-HepG2 [2]: -79±6%
IC50 [2, 5]: 25.6 ± 1.67 µM
MMP assays IC50 (µM) Rat Hepatocytes [3]: inactive
MMP assays efficacy (%) Rat Hepatocytes [3]: inactive

C[C@@H]1C[C@H]2[C@@H]3CCC4=CC(=O)C=C[C@]4(C)[C@@]3(Cl)[C@@H](O)C[C@]2(C)[C@@]1(OC(=O)c1ccco1)C(=O)CCl [Mometasone furoate]
IC50 [1]: 8.3 µM
Emax [1]: 71%
MMP assays efficacy (%) qHTS-HepG2 [2]: -101±23%
IC50 [2, 4]: 11.8 ± 0.8 µM
IC50 [3]: 14 ± 1.14 µM
MMP assays efficacy (%) Rat Hepatocytes [3]: -21±0%

O=[N+]([O-])c1ccc(O)c2ncccc12 [Nitroxoline]
IC50 [1]: 19.9 µM
Emax [1]: 94%
MMP assays efficacy (%) qHTS-HepG2 [2]: -80±8%
IC50 [2, 4]: 9.22 ± 2.41 µM
IC50 [3]: 72.3 ± 39.1 µM
MMP assays efficacy (%) Rat Hepatocytes [3]: -69±54%

CN1C(C(=O)Nc2ccccn2)=C(O)c2sc(Cl)cc2S1(=O)=O [Lornoxicam]
IC50 [1]: 6.15 µM
Emax [1]: 73%
MMP assays efficacy (%) qHTS-HepG2 [2]: -92±10%
IC50 [2, 4]: 9.44 ± 1.09 µM
IC50 [3]: 3.3 ± 2.52 µM
MMP assays efficacy (%) Rat Hepatocytes [3]: -57±10%

Cc1cccc(Nc2ccccc2)c1 [Compound 3-Methyl-N-phenylaniline]
IC50 [1]: 28.2 µM
Emax [1]: 66%
MMP assays efficacy (%) qHTS-HepG2 [2]: -93±25%
IC50 [2, 5]: 48.6 ± 5.61 µM
IC50 [3]: 35.5 µM
MMP assays efficacy (%) Rat Hepatocytes [3]: -74±25%

O=C1OC[C@H](Cc2cccc(O)c2)[C@H]1Cc1cccc(O)c1 [Enterolactone]
IC50 [1]: 10.7 µM
Emax [1]: 76%
MMP assays efficacy (%) qHTS-HepG2 [2]: -79±21%
IC50 [2, 5]: 9.99 ± 5.02 µM
MMP assays IC50 (µM) Rat Hepatocytes [3]: inactive
MMP assays efficacy (%) Rat Hepatocytes [3]: inactive

O=C1c2ccccc2C(=O)C1(O)O [Ninhydrin]
IC50 [1]: 56.2 µM
Emax [1]: 85%
MMP assays efficacy (%) qHTS-HepG2 [2]: -86±19%
IC50 [2, 4]: 32 ± 9.69 µM
MMP assays IC50 (µM) Rat Hepatocytes [3]: inactive
MMP assays efficacy (%) Rat Hepatocytes [3]: inactive

O=C(Nc1ccc(O)cc1)c1ccccc1O [Osalmid]
IC50 [1]: 6.31 µM
Emax [1]: 101%
MMP assays efficacy (%) qHTS-HepG2 [2]: -96±3%
IC50 [2, 4]: 6.68 ± 0.77 µM
IC50 [3]: 30 ± 21.3 µM
MMP assays efficacy (%) Rat Hepatocytes [3]: -93±20%

Nc1cccc(N)n1 [2,6-Diaminopyridine]
IC50 [1]: 35.5 µM
Emax [1]: 84%
MMP assays efficacy (%) qHTS-HepG2 [2]: -68±18%
IC50 [2, 5]: 31.3 ± 10.3 µM
IC50 [3]: 20.9 ± 15.7 µM
MMP assays efficacy (%) Rat Hepatocytes [3]: -75±28%

Cc1ccc2c(c1[N+](=O)[O-])C(=O)c1ccccc1C2=O [Compound 2-Methyl-1-nitroanthraquinone]
IC50 [1]: 2.77 µM
Emax [1]: 88%
MMP assays efficacy (%) qHTS-HepG2 [2]: -63±13%
IC50 [2, 5]: 1.34 ± 0.15 µM
IC50 [3]: 16.9 ± 14.7 µM
MMP assays efficacy (%) Rat Hepatocytes [3]: -84±16%

CC(=O)Nc1ccc(S(=O)(=O)Nc2ccc([N+](=O)[O-])cc2)cc1 [Sulfanitran]
IC50 [1]: 17.3 µM
Emax [1]: 67%
MMP assays efficacy (%) qHTS-HepG2 [2]: -54±11%
IC50 [2, 4]: 26.6 ± 8.77 µM
IC50 [3]: 19.5 ± 2.25 µM
MMP assays efficacy (%) Rat Hepatocytes [3]: -63±14%

CCCCCCCCCCCCCC[n+]1ccccc1 [Tetradecylpyridinium bromide]
IC50 [1]: 17.8 µM
Emax [1]: 102%
MMP assays efficacy (%) qHTS-HepG2 [2]: -76±21%
IC50 [2, 4]: 22.5 ± 4.1 µM
IC50 [3]: 33.5 ± 2.73 µM
MMP assays efficacy (%) Rat Hepatocytes [3]: -99±17%

Cc1cc(/C=C/c2ccc3cc(N(C)C)ccc3[n+]2C)c(C)n1-c1ccccc1 [Pyrvinium pamoate]
IC50 [1]: 0.17 µM
Emax [1]: 91%
MMP assays efficacy (%) qHTS-HepG2 [2]: -108±33%
IC50 [2, 4]: 2.02 ± 1.2 µM

Nc1ccc(N)c([N+](=O)[O-])c1 [2-Nitro-1,4-phenylenediamine]
IC50 [1]: 12.6 µM
Emax [1]: 87%
MMP assays efficacy (%) qHTS-HepG2 [2]: -85±13%
IC50 [2, 5]: 7.07 ± 6.53 µM
